This assay has as its system CAL51 cell proliferation. As to the kind of experiment: Cell Titer Glo Proliferation Assay (CAL51). In kind it is cell-based, human. Particulars: Homo sapiens, CAL-51; CAL51 cell proliferation, 72 h, Cell Titer Glo luminescence; read-out: Act. Level. Put shortly:
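CAL51 triple-negative breast cancer cells in DMEM or RPMI with 10% FBS were treated after overnight culture with serially diluted compound at 0.2% final DMSO. After 72 h, viability was read as CellTiter-Glo luminescence.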
(In ATP-based viability assays light output follows the ATP content of the culture.)

A value given as a limit tells only on which side of the number the result lay.

In the case of `COc1nc(Nc2ccc(C(=O)N(C)C)cc2Cl)nc2[nH]cc(-c3ccncc3)c12` [Example 157, 3-chloro-4-(4-methoxy-5-(pyridin-4-yl)-7H-pyrrolo[2,3-d]pyrimidin-2-ylamino)-N,N-dimethylbenzamide], the IC50 lay in the range of 0.1 to 0.4 µM.

`CNC(=O)c1ccc(-c2c[nH]c3nc(Nc4ccnn4C)nc(OC4CCCC4)c23)cc1` [Example 316, 4-(4-(cyclopentyloxy)-2-(1-methyl-1H-pyrazol-5-ylamino)-7H-pyrrolo [2,3-d]pyrimidin-5-yl)-N-methylbenzamide]: the IC50 is less than 0.1 µM.

As for `CNC(=O)c1ccc(Nc2nc(NC3CC3)c3c(-c4cnn(C)c4)c[nH]c3n2)c(OC)c1` [Example 211, 4-(4-(cyclopropylamino)-5-(1-methyl-1H-pyrazol-4-yl)-7H-pyrrolo[2,3-d]pyrimidin-2-ylamino)-3-methoxy-N-methylbenzamide], the IC50 lay within 0.1 to 0.4 µM.

On to `CNC(=O)c1ccc(Nc2nc(OC3CCCC3)c3c(-c4cccc(NC(C)=O)c4)c[nH]c3n2)c(OC)c1` [Example 56, 4-(5-(3-acetamidophenyl)-4-(cyclopentyloxy)-7H-pyrrolo[2,3-d]pyrimidin-2-ylamino)-3-methoxy-N-methylbenzamide], for which the IC50 was less than 0.1 µM.

Regarding `COc1cc(C(=O)N[C@H]2C[C@H](O)C2)ccc1Nc1nc(OC2CCCC2)c2c(-c3ccc4nc(C)oc4c3)c[nH]c2n1` [Example 239, 4-(4-(cyclopentyloxy)-5-(2-methylbenzo[d]oxazol-6-yl)-7H-pyrrolo[2,3-d]pyrimidin-2-ylamino)-N-((1r,3r)-3-hydroxycyclobutyl)-3-methoxybenzamide], the IC50 is less than 0.1 µM.

For `CNC(=O)c1ccc(-c2c[nH]c3nc(Nc4ccc(C(=O)NC5COC5)cc4OC)nc(OC4CCOCC4)c23)cc1` [Example 310, 3-methoxy-4-(5-(4-(methylcarbamoyl)phenyl)-4-(tetrahydro-2H-pyran-4-yloxy)-7H-pyrrolo[2,3-d]pyrimidin-2-ylamino)-N-(oxetan-3-yl) benzamide], the IC50 is less than 0.1 µM.

On to `COc1cc(C(=O)N[C@H]2CCOC2)ccc1Nc1nc(OC2CCCC2)c2c(-c3ccc4nc(C)oc4c3)c[nH]c2n1` [Example 267, (S)-4-(4-(cyclopentyloxy)-5-(2-methylbenzo[d]oxazol-6-yl)-7H-pyrrolo[2,3-d]pyrimidin-2-ylamino)-3-methoxy-N-(tetrahydrofuran-3-yl)benzamide], for which the IC50 lay within 0.1 to 0.4 µM.

In the case of `COc1cc(C(=O)NCCN)ccc1Nc1nc(OC2CCCC2)c2c(-c3ccc4nc(C)oc4c3)c[nH]c2n1` [Example 100, N-(2-aminoethyl)-4-(4-(cyclopentyl-oxy)-5-(2-methylbenzo[d]oxazol-6-yl)-7H-pyrrolo[2,3-d]pyrimidin-2-ylamino)-3-methoxybenzamide], the IC50 was less than 0.1 µM.

In the case of `CNC(=O)c1ccc(Nc2nc(OC3CCCC3)c3c(-c4ccc(O)cc4)c[nH]c3n2)c(C)c1` [Example 9], the IC50 is less than 0.1 µM.

Consider `COc1cc(C(=O)NC[C@H](C)O)ccc1Nc1nc(OC2CCCC2)c2c(-c3ccc4nc(C)oc4c3)c[nH]c2n1` [Example 240, (S)-4-(4-(cyclopentyloxy)-5-(2-methylbenzo[d]oxazol-6-yl)-7H-pyrrolo[2,3-d]pyrimidin-2-ylamino)-N-(2-hydroxypropyl)-3-methoxybenzamide], for which the IC50 is 0.1 to 0.4 µM.

Regarding `COCCN(C)C(=O)c1ccc(Nc2nc(OC3CCCC3)c3c(-c4ccc5nc(C)oc5c4)c[nH]c3n2)c(OC)c1` [Example 284, 4-(4-(cyclopentyloxy)-5-(2-methylbenzo[d]oxazol-6-yl)-7H-pyrrolo[2,3-d]pyrimidin-2-ylamino)-3-methoxy-N-(2-methoxyethyl)-N-methylbenzamide], the IC50 was less than 0.1 µM.

On to `CNC(=O)c1ccc(Nc2nc(OC3CCOCC3)c3c(-c4cc5oc(C)nc5cc4C)c[nH]c3n2)c(OC)c1` [Example 136, 4-(5-(2,5-dimethylbenzo[d]oxazol-6-yl)-4-(tetrahydro-2H-pyran-4-yloxy)-7H-pyrrolo[2,3-d]pyrimidin-2-ylamino)-3-methoxy-N-methylbenzamide], for which the IC50 fell in the range of 1 to 10 µM.

In the case of `CNC(=O)c1ccc(Nc2nc(OC3CCCC3)c3c(-c4ccc(OC)c(F)c4)c[nH]c3n2)c(OC)c1` [Example 54, 4-(4-(cyclopentyloxy)-5-(3-fluoro-4-methoxyphenyl)-7H-pyrrolo[2,3-d]pyrimidin-2-ylamino)-3-methoxy-N-methylbenzamide], the IC50 lay within 0.1 to 0.4 µM.

On to `CNC(=O)c1ccc(Nc2nc(OC3CCCC3)c3c(-c4ccc(-c5ncc[nH]5)cc4)c[nH]c3n2)c(OC)c1` [Example 48, 4-(5-(4-(1H-imidazol-2-yl)phenyl)-4-(cyclopentyloxy)-7H-pyrrolo[2,3-d]pyrimidin-2-ylamino)-3-methoxy-N-methylbenzamide], for which the IC50 is less than 0.1 µM.

Regarding `COc1cc(C(=O)NC[C@@H](C)O)ccc1Nc1nc(OC2CCCC2)c2c(-c3ccc4nc(C)oc4c3)c[nH]c2n1` [Example 230, (R)-4-(4-(cyclopentyloxy)-5-(2-methylbenzo[d]oxazol-6-yl)-7H-pyrrolo[2,3-d]pyrimidin-2-ylamino)-N-(2-hydroxypropyl)-3-methoxybenzamide], the IC50 is 0.1 to 0.4 µM.

`CNC(=O)c1ccc(Nc2nc(OC3CCOCC3)c3c(-c4nccn4C)c[nH]c3n2)c(OC)c1` [Example 172, 3-methoxy-N-methyl-4-(5-(1-methyl-1H-imidazol-2-yl)-4-(tetrahydro-2H-pyran-4-yloxy)-7H-pyrrolo[2,3-d]pyrimidin-2-ylamino)benzamide]: the IC50 lay in the range of 1 to 10 µM.

As to `COc1cc(C(=O)N2CCN(C)CC2)ccc1Nc1nc(OC2CCCC2)c2c(-c3ccc4nc(C)oc4c3)c[nH]c2n1` [Example 259, (4-(4-(cyclopentyloxy)-5-(2-methylbenzo[d]oxazol-6-yl)-7H-pyrrolo[2,3-d]pyrimidin-2-ylamino)-3-methoxyphenyl)(4-methylpiperazin-1-yl)methanone], the IC50 was less than 0.1 µM.

On to `Cc1cc(C(=O)N(C)C)ccc1Nc1nc(OC2CCOCC2)c2c(-c3ccncc3)c[nH]c2n1` [Example 93, N,N,3-trimethyl-4-(5-(pyridin-4-yl)-4-(tetrahydro-2H-pyran-4-yloxy)-7H-pyrrolo[2,3-d]pyrimidin-2-ylamino)benzamide], for which the IC50 was less than 0.1 µM.

Turning to `Cc1nc2ccc(-c3c[nH]c4nc(Nc5ccc(C(=O)N(C)C)cc5C)nc(NC5CCOCC5)c34)cc2o1` [Example 69, N,N,3-trimethyl-4-(5-(2-methylbenzo[d]oxazol-6-yl)-4-(tetrahydro-2H-pyran-4-ylamino)-7H-pyrrolo[2,3-d]pyrimidin-2-ylamino)benzamide], the IC50 fell in the range of 0.1 to 0.4 µM.

`COc1nc(Nc2ccc(C(=O)N(C)C)cc2C)nc2[nH]cc(-c3ccncc3)c12` [Example 89, 4-(4-methoxy-5-(pyridin-4-yl)-7H-pyrrolo[2,3-d]pyrimidin-2-ylamino)-N,N,3-trimethylbenzamide]: the IC50 lay in the range of 0.1 to 0.4 µM.

As for `CNC(=O)c1ccc(Nc2nc(OC3CCCC3)c3c(-c4ccc5cnn(C)c5c4)c[nH]c3n2)c(OC)c1` [Example 278, 4-(4-(cyclopentyloxy)-5-(1-methyl-1H-indazol-6-yl)-7H-pyrrolo[2,3-d]pyrimidin-2-ylamino)-3-methoxy-N-methylbenzamide], the IC50 lay within 0.4 to 1 µM.

`CNC(=O)c1ccc(Nc2nc(OC3CCCC3)c3c(-c4ccc(N)cc4)c[nH]c3n2)c(OC)c1` [Example 37, 4-(5-(4-aminophenyl)-4-(cyclopentyloxy)-7H-pyrrolo[2,3-d]pyrimidin-2-ylamino)-3-methoxy-N-methylbenzamide]: the IC50 was less than 0.1 µM.

As to `COc1cc(C(=O)NC2CN(C(C)=O)C2)ccc1Nc1nc(OC2CCCC2)c2c(-c3ccc4nc(C)oc4c3)c[nH]c2n1` [Example 308, N-(1-acetylazetidin-3-yl)-4-(4-(cyclopentyloxy)-5-(2-methylbenzo[d]oxazol-6-yl)-7H-pyrrolo[2,3-d]pyrimidin-2-ylamino)-3-methoxybenzamide], the IC50 fell in the range of 0.1 to 0.4 µM.

Turning to `CNC(=O)c1ccc(Nc2nc(OC)c3c(-c4ccncc4)c[nH]c3n2)c(C)c1` [Example 156, 4-(4-methoxy-5-(pyridin-4-yl)-7H-pyrrolo[2,3-d]pyrimidin-2-ylamino)-N,3-dimethylbenzamide], the IC50 is 0.1 to 0.4 µM.

Turning to `COc1nc(Nc2ccc(C(=O)N(C)C)cc2Cl)nc2[nH]cc(-c3ccc(-c4nnc[nH]4)cc3)c12` [Example 53, 4-(5-(4-(4H-1,2,4-triazol-3-yl)phenyl)-4-methoxy-7H-pyrrolo [2,3-d]pyrimidin-2-ylamino)-3-chloro-N,N-dimethylbenzamide], the IC50 was in the range of 0.1 to 0.4 µM.

Turning to `CNC(=O)c1ccc(Nc2nc(OC3CCOCC3)c3c(-c4ccc(N(C)C)nc4)c[nH]c3n2)c(OC)c1` [Example 126, 4-(5-(6-(dimethylamino)pyridin-3-yl)-4-(tetrahydro-2H-pyran-4-yloxy)-7H-pyrrolo[2,3-d]pyrimidin-2-ylamino)-3-methoxy-N-methylbenzamide], the IC50 lay within 0.4 to 1 µM.

Consider `CNC(=O)c1ccc(Nc2nc(OC(C)C)c3c(-c4ccnc(NC)c4)c[nH]c3n2)c(OC)c1` [Example 199, 4-(4-isopropoxy-5-(2-(methylamino)pyridin-4-yl)-7H-pyrrolo[2,3-d]pyrimidin-2-ylamino)-3-methoxy-N-methylbenzamide], for which the IC50 is less than 0.1 µM.

Consider `COc1cc(C(=O)N[C@H]2CCC[C@H]2O)ccc1Nc1nc(OC2CCCC2)c2c(-c3ccc4nc(C)oc4c3)c[nH]c2n1` [Example 264, 4-(4-(cyclopentyloxy)-5-(2-methylbenzo[d]oxazol-6-yl)-7H-pyrrolo[2,3-d]pyrimidin-2-ylamino)-N-((1S,2R)-2-hydroxycyclopentyl)-3-methoxy-benzamide], for which the IC50 was in the range of 0.1 to 0.4 µM.

As for `CNC(=O)c1ccc(Nc2nc(OC)c3c(-c4ccc(-c5ncc[nH]5)cc4)c[nH]c3n2)c(OC)c1` [Example 141, 4-(5-(4-(1H-imidazol-2-yl)phenyl)-4-methoxy-7H-pyrrolo[2,3-d]pyrimidin-2-ylamino)-3-methoxy-N-methylbenzamide], the IC50 fell in the range of 0.1 to 0.4 µM.

These data come from patent publication US9346812B2, “Substituted pyrrolopyrimidine compounds, compositions thereof, and methods of treatment therewith” (Signal Pharmaceutical LLC, priority 2013, dated 2016).
